Experimental data taken from patent US12110286B2, “Benzimidazolone derived inhibitors of BCL6” (Cancer Research Technology Limited, priority 2017, dated 2024).

molecular target: Trx-6×His-BCL6 (human BCL6 BTB domain covering amino-acid sequence 5-129) (Homo sapiens (Human), UniProt P41182); test: HTRF in vitro assay (BCL6 / BCOR-AF633 peptide); type: binding; details: further generated data; 1 nM Trx-6×His-BCL6, 300 nM BCOR-AF633 peptide, 0.5 nM anti-6×His-Terbium cryptate
Method: The % inhibition at each concentration was calculated by normalising FRET ratio to the appropriate high (DMSO with all reagents) and low (DMSO without BCL6) controls.

Row | Structure (SMILES) | HTRF pIC50
1 | CCC(C)(O)CCn1c(=O)n(C)c2ccc(Nc3ccnc(Cl)c3C#N)cc21 (stereo not drawn) [Example 27c, 2-chloro-4-((3-(3-hydroxy-3-methylpentyl)-1-methyl-2-oxo-2,3-dihydro-1H-benzo[d]imidazol-5-yl)amino)nicotinonitrile] | 5.93
2 | Cn1c(=O)n(CCC(C)(O)C(F)(F)F)c2cc(Nc3ccnc(Cl)c3C#N)ccc21 (stereo not drawn) [Example 27d, 2-chloro-4-((1-methyl-2-oxo-3-(4,4,4-trifluoro-3-hydroxy-3-methylbutyl)-2,3-dihydro-1H-benzo[d]imidazol-5-yl)amino)nicotinonitrile] | 5.70
3 | CC(Cn1c(=O)n(C)c2ccc(Nc3ccnc(Cl)c3C#N)cc21)C(C)(C)O (stereo not drawn) [Example 27e, 2-chloro-4-((3-(3-hydroxy-2,3-dimethylbutyl)-1-methyl-2-oxo-2,3-dihydro-1H-benzo[d]imidazol-5-yl)amino)nicotinonitrile] | 5.55
4 | CC(C)C(C)(O)CCn1c(=O)n(C)c2ccc(Nc3ccnc(Cl)c3C#N)cc21 (stereo not drawn) [Example 27f, 2-chloro-4-((3-(3-hydroxy-3,4-dimethylpentyl)-1-methyl-2-oxo-2,3-dihydro-1H-benzo[d]imidazol-5-yl)amino)nicotinonitrile] | 5.40
5 | Cn1c(=O)n(CCC(C)(C)O)c2cc(Nc3ccnc(F)c3Cl)ccc21 [Example 29a, 5-((3-chloro-2-fluoropyridin-4-yl)amino)-3-(3-hydroxy-3-methylbutyl)-1-methyl-1,3-dihydro-2H-benzo[d]imidazol-2-one] | 6.21
6 | Cn1c(=O)n(CCC(C)(C)O)c2cc(Nc3ccnc(Cl)c3Cl)ccc21 [Example 29b, 5-((2,3-dichloropyridin-4-yl)amino)-3-(3-hydroxy-3-methylbutyl)-1-methyl-1,3-dihydro-2H-benzo[d]imidazol-2-one] | 5.88
7 | Cn1c(=O)n(CCC(C)(C)O)c2cc(Nc3ccncc3Br)ccc21 [Example 29c, 5-((3-bromopyridin-4-yl)amino)-3-(3-hydroxy-3-methylbutyl)-1-methyl-1,3-dihydro-2H-benzo[d]imidazol-2-one] | 5.38
8 | Cn1c(=O)n(CCC(C)(C)O)c2cc(Nc3cc(C(F)(F)F)ncc3Cl)ccc21 [Example 29d, 5-((5-chloro-2-(trifluoromethyl)pyridin-4-yl)amino)-3-(3-hydroxy-3-methylbutyl)-1-methyl-1,3-dihydro-2H-benzo[d]imidazol-2-one] | 5.48
9 | Cn1c(=O)n(CCC(C)(C)O)c2cc(Nc3ccncc3Cl)ccc21 [Example 29e, 5-((3-chloropyridin-4-yl)amino)-3-(3-hydroxy-3-methylbutyl)-1-methyl-1,3-dihydro-2H-benzo[d]imidazol-2-one] | 5.93
10 | Cn1c(=O)n(CCC(C)(C)O)c2cc(Nc3nc(N4CCCC4=O)ncc3Cl)ccc21 [Example 30b, 5-((5-chloro-2-(2-oxopyrrolidin-1-yl)pyrimidin-4-yl)amino)-3-(3-hydroxy-3-methylbutyl)-1-methyl-1,3-dihydro-2H-benzo[d]imidazol-2-one] | 5.99
11 | Cn1c(=O)n(CCC(C)(C)O)c2cc(Nc3nc(N4CCC[C@H]4CO)ncc3Cl)ccc21 [Example 31a, (S)-5-((5-chloro-2-(2-(hydroxymethyl)pyrrolidin-1-yl)pyrimidin-4-yl)amino)-3-(3-hydroxy-3-methylbutyl)-1-methyl-1,3-dihydro-2H-benzo[d]imidazol-2-one] | 6.46
12 | Cn1c(=O)n(CCC(C)(C)O)c2cc(Nc3cc(N4CCC[C@H]4CO)nc4c(C#N)cnn34)ccc21 [Example 31b, (S)-7-((3-(3-hydroxy-3-methylbutyl)-1-methyl-2-oxo-2,3-dihydro-1H-benzo[d]imidazol-5-yl)amino)-5-(2-(hydroxymethyl)pyrrolidin-1-yl)pyrazolo[1,5-a]pyrimidine-3-carbonitrile] | 5.73
13 | Cn1c(=O)n(CCC2(C)CO2)c2cc(Nc3ccnc(Cl)c3C#N)ccc21 (stereo not drawn) [Example 32, 2-chloro-4-((1-methyl-3-(2-(2-methyloxiran-2-yl)ethyl)-2-oxo-2,3-dihydro-1H-benzo[d]imidazol-5-yl)amino)nicotinonitrile] | 5.44
14 | CN1CC(C)(CCn2c(=O)n(C)c3ccc(Nc4ccnc(Cl)c4C#N)cc32)OC1=O (stereo not drawn) [Example 33, 2-chloro-4-((3-(2-(3,5-dimethyl-2-oxooxazolidin-5-yl)ethyl)-1-methyl-2-oxo-2,3-dihydro-1H-benzo[d]imidazol-5-yl)amino)nicotinonitrile] | 5.43
15 | CC1OC(=O)NC1Cn1c(=O)n(C)c2ccc(Nc3ccnc(Cl)c3C#N)cc21 (stereo not drawn) [Example 34, 2-chloro-4-((1-methyl-3-((5-methyl-2-oxooxazolidin-4-yl)methyl)-2-oxo-2,3-dihydro-1H-benzo[d]imidazol-5-yl)amino)nicotinonitrile] | 5.31
16 | Cn1c(=O)n(CCC(C)(C)O)c2cc(Nc3nc(N4CCC5(CC4)CC(F)(F)C5)ncc3Cl)ccc21 [Example 35f, 5-((5-chloro-2-(2,2-difluoro-7-azaspiro[3.5]nonan-7-yl)pyrimidin-4-yl)amino)-3-(3-hydroxy-3-methylbutyl)-1-methyl-1,3-dihydro-2H-benzo[d]imidazol-2-one] | 6.05
17 | Cn1c(=O)n(CCC(C)(C)O)c2cc(Nc3nc(N4C[C@@H](F)[C@@H](F)C4)ncc3Cl)ccc21 [Example 35h, 5-((5-chloro-2-((3R,4S)-3,4-difluoropyrrolidin-1-yl)pyrimidin-4-yl)amino)-3-(3-hydroxy-3-methylbutyl)-1-methyl-1,3-dihydro-2H-benzo[d]imidazol-2-one] | 6.36
18 | Cn1c(=O)n(C[C@@H]2CCCN2CC(F)(F)F)c2cc(Nc3nc(N4CC(C)(C)OC(C)(C)C4)ncc3Cl)ccc21 [Example 35i, (S)-5-((5-chloro-2-(2,2,6,6-tetramethylmorpholino)pyrimidin-4-yl)amino)-1-methyl-3-((1-(2,2,2-trifluoroethyl)pyrrolidin-2-yl)methyl)-1,3-dihydro-2H-benzo[d]imidazol-2-one] | 6.01
19 | Cn1c(=O)n(CCC(C)(C)O)c2cc(Nc3nc(N4C[C@@H]5CC[C@@H](C5)C4)ncc3Cl)ccc21 [Example 35n, 5-((2-((1R,5S)-3-azabicyclo[3.2.1]octan-3-yl)-5-chloropyrimidin-4-yl)amino)-3-(3-hydroxy-3-methylbutyl)-1-methyl-1,3-dihydro-2H-benzo[d]imidazol-2-one] | 6.05
20 | Cn1c(=O)n(CCC(C)(C)O)c2cc(Nc3nc(N4C[C@H]5CCCC[C@H]5C4)ncc3Cl)ccc21 [Example 35o, 5-((5-chloro-2-((3aR,7aS)-octahydro-2H-isoindo1-2-yl)pyrimidin-4-yl)amino)-3-(3-hydroxy-3-methylbutyl)-1-methyl-1,3-dihydro-2H-benzo[d]imidazol-2-one] | 6.04
21 | C[C@@H]1CN(c2ncc(Cl)c(Nc3ccc4c(c3)n(CCC(C)(C)O)c(=O)n4C)n2)C[C@@H]1C [Example 35p, 5-((5-chloro-2-((3R,4S)-3,4-dimethylpyrrolidin-1-yl)pyrimidin-4-yl)amino)-3-(3-hydroxy-3-methylbutyl)-1-methyl-1,3-dihydro-2H-benzo[d]imidazol-2-one] | 6.15
22 | C[C@@H]1CN(c2ncc(Cl)c(Nc3cnc4c(c3)n(CCC(C)(C)O)c(=O)n4CCC(C)(C)O)n2)C[C@H](C)C1(F)F [Example 35r, 6-((5-chloro-2-((3R,5S)-4,4-difluoro-3,5-dimethylpiperidin-1-yl)pyrimidin-4-yl)amino)-1,3-bis(3-hydroxy-3-methylbutyl)-1,3-dihydro-2H-imidazo[4,5-b]pyridin-2-one] | 5.98
23 | Cn1c(=O)n(CCC(C)(C)O)c2cc(Nc3nc(N4CC5CCC(C4)C5(F)F)ncc3Cl)ccc21 [Example 35s, 5-((5-chloro-2-(8,8-difluoro-3-azabicyclo[3.2.1]octan-3-yl)pyrimidin-4-yl)amino)-3-(3-hydroxy-3-methylbutyl)-1-methyl-1,3-dihydro-2H-benzo[d]imidazol-2-one] | 6.16
24 | CC(C)(O)CCn1c(=O)n(CCC(C)(C)O)c2c(Cl)cc(Nc3nc(N4CC(C)(C)OC(C)(C)C4)ncc3Cl)cc21 [Example 35u, 4-chloro-6-((5-chloro-2-(2,2,6,6-tetramethylmorpholino)pyrimidin-4-yl)amino)-1,3-bis(3-hydroxy-3-methylbutyl)-1,3-dihydro-2H-benzo[d]imidazol-2-one] | 5.74
25 | Cn1c(=O)n(CCC(C)(C)O)c2cc(Nc3nc(N4CC5CC(C4)C5(F)F)ncc3Cl)ccc21 [Example 35w, 5-((5-chloro-2-(6,6-difluoro-3-azabicyclo[3.1.1]heptan-3-yl)pyrimidin-4-yl)amino)-3-(3-hydroxy-3-methylbutyl)-1-methyl-1,3-dihydro-2H-benzo[d]imidazol-2-one] | 5.74
26 | C[C@@H]1CCN(c2ncc(Cl)c(Nc3ccc4c(c3)n(CCC(C)(C)O)c(=O)n4C)n2)C[C@H](C)C1 [Example 35y, 5-((5-chloro-2-((3R,5S)-3,5-dimethylazepan-1-yl)pyrimidin-4-yl)amino)-3-(3-hydroxy-3-methylbutyl)-1-methyl-1,3-dihydro-2H-benzo[d]imidazol-2-one] | 5.70
27 | Cn1c(=O)n(CCC(C)(C)O)c2cc(Nc3nc(N4CCCC(c5ccccc5)C4)ncc3Cl)ccc21 (stereo not drawn) [Example 35za, 5-((5-chloro-2-(3-phenylpiperidin-1-yl)pyrimidin-4-yl)amino)-3-(3-hydroxy-3-methylbutyl)-1-methyl-1,3-dihydro-2H-benzo[d]imidazol-2-one] | 6.00
